Experimental data reported in EP4501920A1, “NOVEL PYRAZOLE DERIVATIVES” (Aptabio Therapeutics Inc., priority 2022, dated 2023).

Tests used:
[1] = tested on: LX-2 (human hepatic stellate cells); test: ROS production induced by PMA in LX-2 cells; assay type: cell-based; conditions: FIG. 1
Excerpt: (§1) In order to confirm the effect of the compounds of Synthetic examples on ROS production from fibroblasts and specific substrate cells, ROS production was induced by stimulation of PMA (phorbol 12-myristate 13-acetate), TGF-β1, palmitate or high concentration-glucose, or the like, in HL-60 cells differentiated into neutrophil cells by DMSO treatment, NHLF (normal human lung fibroblast, Lonza), LX-2 (human hepatic stellate cells, Sigma), ARPE19 (human retinal pigment epithelial cell, ATCC), and KEL-FIB (Keloid fibroblast, ATCC) cells, and under this condition, the inhibitory effect of ROS production of the compounds of Synthetic examples was observed.
(§2) The NHLF (normal human lung fibroblast, Lonza), LX-2 (human hepatic stellate cells, Sigma), ARPE19 (human retinal pigment epithelial cell, ATCC), KEL-FIB (keloid fibroblast, ATCC) cells were suspended in a culture medium containing 10% FBS and aliquoted on a 96 well plate and then cultured under the condition of 5% CO2, 37°C for 24 hours. After pre-treating the compounds of Synthetic examples at a concentration of 10, 20, 30, 40, 60 and 80 µM for 30 minutes to 1 hour, the ROS stimulus was treated to each well containing the cells and drug. After additional culturing for 48 hours, the ROS production level was confirmed using L-012 or DCF-DA.

[2] = tested on: NHLF (normal human lung fibroblast); test: ROS production induced by PMA in NHLF cells; assay type: cell-based; conditions: FIG. 1
Excerpt: as §1, §2

[3] = tested on: αSMA; test: Expression of αSMA induced by TGF-β1 (immunocytochemistry); assay type: cell-based, human; conditions: TGF-β1 (10 ng/ml), 10 µM, FIG. 4
Excerpt: In order to confirm whether the compounds of Synthetic examples of the present invention affect differentiation of fibroblasts into myofibroblasts, the inhibitory effect of the compounds of Synthetic examples on increase in expression of αSMA (biomarker for confirming differentiation into myofibroblasts) induced by TGF-β1 on HFF-1 (human foreskin fibroblast, ATCC), NHLF (normal human lung fibroblast, Lonza), LX-2 (human hepatic stellate cells, Sigma), ARPE19 (human retinal pigment epithelial cell, ATCC), and KEL-FIB (Keloid fibroblast, ATCC) cells was to be observed.
Each cell was suspended in a DMEM medium containing 10% FBS and aliquoted at a concentration of 1×10^4 to 1.5 × 10 ^5 cells/well in a 4-well chamber slide (Nunc) and the compounds of Synthetic examples and TGF-β1 (both TGF β1 and TGF-β have the same meaning) were treated to prepare cells to be used for confirming αSMA expression. The confirmation of αSMA expression in the prepared cells was performed by immunocytochemistry as follows. For the cells, fixation with 4% paraformaldehyde for 10 minutes and permeabilization using 0.1% Triton x-100 were performed, and then processes of treating the primary antibody (anti-αSMA Ab, 1:200, at 4°C for 16 hours) and secondary antibody (Alexa-594 conjugated Ab, 1:800, at a room temperature for 1 hour) against αSMA were progressed in order, and then the expression level of αSMA was observed using a fluorescence microscope.
FIG. 3 observes the effect of treating various compounds of Synthetic examples by 10, 20 and 40 µM, after inducing αSMA expression by treatment of TGF-β1(10 ng/ml) into HFF cells.

[4] = tested on: human foreskin fibroblasts (HFF-1, ATCC); test: Collagen gel contraction induced by TGF-β1; assay type: cell-based; conditions: HFF-1 cells and bovine type I collagen; TGF-β1 (10 ng/ml); 72 hours; FIG. 7
Excerpt: In order to confirm the effect of the compounds of Synthetic examples on differentiation of fibroblasts into myofibroblasts, the inhibitory effect of the compounds of Synthetic examples on the phenomenon of contraction of gel induced by interaction of human foreskin fibroblasts (HFF-1, ATCC) and collagen was observed.
The mixed solution of the HFF-1 cells and collagen (bovine type I collagen) prepared at a concentration of 3×10^6 cells/ml was aliquoted in a 24 well plate, respectively, and then cultured under the condition of 5% CO2, 37 °C for 1 hour to induce gel polymerization. Then, after suspending the gel attached on the plate from the plate using a spoon, a medium comprising TGF-β1 and Synthetic example compounds was added to each well. After culturing for 72 hours, the Synthetic example compounds were treated by 10, 20, 30, 40, 60 and 80 µM to measure the size of the gel, and thereby, the degree of contraction of the gel by drug treatment was confirmed.

[5] = tested on: IL-1β; test: Expression of IL-1β induced by LPS in human-derived fibroblasts (RT-PCR); assay type: cell-based; conditions: LPS (1 µg/ml) 6 hours; 10 µM; FIG. 8 (LX2, NHLF, ARPE19 and KEL-Fib cells)
Procedure: After inoculating 2×10^5 cells in a 6 well plate and then culturing for 24 hours, they were further cultured in a serum-free culture solution for 16 hours and then the Synthetic example 1 Compound was pre-treated for 20 minutes according to each condition and inflammation reaction was induced with LPS (1 µg/ml) for 6 hours. The expression of IL-1β was confirmed using RT-PCR. Total RNA was separated from the cells using RNeasy mini kit (Qiagen), and for the separated RNA 2ug, cDNA was synthesized using PrimeScript™ II 1st strand cDNA synthesis kit (TaKaRa) and then PCR was performed with AccuPower® PCR PreMix (Bioneer) to amplify genes. The nucleotide sequences for target primers are as follows. IL-1β (forward: 5'-[…]-3'(SEQ ID NO: 1), reverse: 5'-[…]-3'(SEQ ID NO: 2)); GAPDH (forward: 5'-[…]-3'(SEQ ID NO: 3), reverse: 5'-[…]-3'(SEQ ID NO: 4)); β-actin (forward: 5'-[…]-3'(SEQ ID NO: 5), reverse: 5'-[…]-3'(SEQ ID NO: 6)). The PCR product was confirmed by electrophoresis in 1.5% agarose gel.

[6] = tested on: IL-6; test: Expression of IL-6 in pancreatic cancer associated fibroblasts (ELISA); assay type: cell-based, human; conditions: P.CAF cells; compounds 10, 20, 30, 40, 60 and 80 µM for 48 hours; FIG. 5
Procedure: (§3) In order to confirm the effect of the compounds of Synthetic examples of the present invention on inflammation reaction in cancer associated fibroblasts, whether the expression of IL6 and IL8 was inhibited by the compounds of Synthetic examples in pancreatic cancer associated fibroblasts (PCAF) was observed.
(§4) After inoculating 1.5×10^5 cells in a 6 well plate and then culturing in P.CAF complete media for 48 hours, the compounds of Synthetic examples were treated by 10, 20, 30, 40, 60 and 80 µM for 48 hours according to each condition, and then the expression of IL-6 and IL-8 was confirmed by performing ELISA with Quantkine ELISA kit (R&D systems) as follows.
(§5) 100 µl of the culture solution in which the compounds of Synthetic examples were treated for 48 hours was added to the microplate strip for analysis including a 100 µl assay diluent and left at a room temperature for 2 hours and then the contents were removed, and then it was washed with 400 µl wash buffer 4 times. 200 µl of a human IL-6 or IL-8 conjugate was added and left at a room temperature for 2 hours and then the contents were removed, and then it was washed with 400 µl wash buffer 4 times. 200 µl of substrate solution was added and left at a room temperature for 20 minutes and then 50 µl of stop solution was added, and the absorbance at a wavelength of 450nm was measured within 30 minutes to confirm the expression level of IL-6 and IL-8.

[7] = tested on: IL-8; test: Expression of IL-8 in pancreatic cancer associated fibroblasts (ELISA); assay type: cell-based, human; conditions: P.CAF cells; compounds 10, 20, 30, 40, 60 and 80 µM for 48 hours; FIG. 6
Procedure: as §3, §4, §5

[8] = tested on: N27 (rat dopaminergic neural cell, Sigma) cells; test: ROS production induced by alpha-synuclein preformed fibril (PFF) in dopaminergic neural cells (CellROX-Deep Red); assay type: cell-based; conditions: 0.001 µM, 24 hours, FIG. 2
Procedure: In order to confirm the effect of the compounds of Synthetic examples on ROS production from dopaminergic neural cells, ROS production was induced by alpha-synuclein preformed fibril (PFF) stimulation on N27 (rat dopaminergic neural cell, Sigma) cells and under this condition, the inhibitory effect of ROS production of the compounds of Synthetic examples was observed.
The N27 cells were cultured in RPMI medium containing 10% FBS, 1 µM angiotensin II, and the prepared cells were aliquoted at a concentration of 4×10^3 cells/well on a 6-well plate. The ROS production stimulus, PFF (preformed fibril) and the compounds of Synthetic examples were treated to the cells. After treating the compounds of Synthetic examples for 24 hours, fluorescence of each well was measured using CellROX-Deep Red reagent, thereby confirming the degree of ROS production.

[9] = tested on: alpha-synuclein preformed fibril (PFF) injection Parkinson's disease mouse model; test: Brain damage treatment effect in PFF injection Parkinson's disease mouse model; assay type: in vivo, C57Bl/6 mice; conditions: 25 mg/kg orally once a day for 7 weeks
Procedure: In order to test the effect for preventing or treating brain disease or disorder of the compounds of Synthetic examples, it was evaluated using an alpha-synuclein preformed fibril (PFF) injection Parkinson's disease mouse model.
C57Bl/6 mice were used, and all the mice were maintained under the standard condition. The experiment was conducted by dividing the experimental animals into a normal control group in which distilled water was orally administered (negative control), an alpha-synuclein preformed fibril (PFF) injection Parkinson's disease induction group (vehicle control), and an experimental group in which the compound of Synthetic example 16 of 25 mg/kg was orally administered into the alpha-synuclein preformed fibril (PFF) injection Parkinson's induction group daily (Synthetic example) with 8 animals in each group. For the normal control group, physiological saline solution was administered, and the Synthetic example compound was orally administered once a day for 7 weeks, and then a behavior change experiment and a histopathological experiment were performed.
The behavior change was analyzed by Rota rod, pole test and hindlimb clasping, and the average value of the 3 experiments per each animal was measured. […]

SMILES | ROS production induced by PMA [1] | ROS production induced by PMA [2] | increase in expression of αSMA induced by TGF-β1 ([3]; ARPE19 cells) | increase in expression of αSMA induced by TGF-β1 ([3]; KEL-FIB cells) | increase in expression of αSMA induced by TGF-β1 ([3]; LX-2 cells) | increase in expression of αSMA induced by TGF-β1 ([3]; NHLF cells) | contraction of the gel induced by TGF-β1 [4] | IL-1β induced by LPS [5] | IL-6 expressed in P.CAF [6] | IL-8 expressed in P.CAF [7] | ROS production induced by PFF [8] | Parkinson-like behavior symptoms improved ([9]; Rota rod, pole test, hindlimb clasping) | aggregation and accumulation of a-synuclein improved ([9]; striatum histopathology)
CN(Cc1ccccc1)C1CCc2nn(-c3ccccn3)c(O)c2C1 (stereo not shown) [Compound 1, 5-(Benzylmethylamino)-2-(pyridin-2-yl)-4,5,6,7-tetrahydro-2H-indazol-3-ol] | inhibited | inhibited | significantly inhibited | significantly inhibited | significantly inhibited | significantly inhibited | effectively inhibited | effectively inhibited in a concentration-dependent manner | effectively inhibited | effectively inhibited | – | – | –
CN1CCN(C2CCc3nn(-c4ccccn4)c(O)c3C2)CC1 (stereo not shown) [Compound 16, 5-(4-Methylpiperazin-1-yl)-2-(pyridin-2-yl)-4,5,6,7-tetrahydro-2H-indazol-3-ol] | – | – | – | – | – | – | effectively inhibited | – | – | – | effectively inhibited | ≥ 50% | ≥ 50%
OCCOCCN1CCN(C2CCc3nn(-c4ccccn4)c(O)c3C2)CC1 (stereo not shown) [Compound 17] | inhibited | inhibited | – | – | – | – | – | – | – | – | – | – | –
